Patent publication US20120164203A1, “PROCESS FOR PREPARATION OF STABLE, MICROENCAPSULATED AND SUSTAINED RELEASE BIOCIDAL ACTIVES AND COMPOSITION THEREOF” (priority 2009, published 2012)

What was measured:
[1] = test system: Escherichia coli ATCC 11229; assay: Antimicrobial activity (log reduction) on flexible PVC surface, Z 2801:2000; format: cell-based; settings: 24 hrs incubation
Method: (§1) The aqueous biocidal dispersion containing encapsulated biocide was prepared as described in example 19 to provide 20% BIT (prepared as described in Example 5). The dispersion was incorporated into flexible PVC using a Brabender. The plastic samples containing different BIT concentrations were tested according to the Japanese HS Z 2801:2000 entitled “Antimicrobial products-test for antimicrobial activity and efficacy.”
(§2) Briefly, samples were inoculated on the surface with bacterial strains such as Escherichia coli ATCC 11229 or Staphylococcus aureus ATCC 6538. After 24 hrs of incusbation, the samples were examined to determine the number of bacterial count left on the surface of the sample. A reduction in the bacterial population or count was estimated based on the plate count of the control (untreated or blank) sample and treated samples. The results of this activity indicate that aqueous biocidal dispersion prepared according to the present invention provides better antibacterial activity through larger log reduction and is shown in Table 3.

[2] = test system: Staphylococcus aureus ATCC 6538; assay: as above; format: cell-based; settings: 24 hrs incubation
Method: as §1, §2

[3] = Analytical determination of active ingredient in the leachate (water, UV-Vis); format: physicochemical; settings: active 5% in water
Method: The active ingredient is added (5%) to required amount of water. After a certain amount of time, the leachate is collected through a filter and the same amount of water replaced. The amount of active ingredients of each leachate is determined analytically by UV-Vis.

[4] = Analytical determination of active ingredient leaching out of a paint film (UV-Visible); format: physicochemical; settings: PVA paint film, total IPBC incorporated 2000 ppm
Method: The active ingredient is added to PVA paint to a final concentration of 2000 ppm. Drawdown of the paint samples are prepared by casting a 3-mil film onto drawdown paperboard (Lanetta). The drawdown samples are allowed to dry at room temperature for 24 hrs. A sample of 2×6 cm is cut. The cut samples are then placed in 100 ml of water in a closed beaker for the different duration of time limits. At different time intervals the water is collected and replaced with the same amount of water. The quantity of the active ingredient present in each leachate is determined by UV-Visible spectroscopic method.

## O=c1[nH]sc2ccccc12 [BIT, 1,2-benzisothiazoline-3-one]
[1]; 100 ppm in flexible PVC
  Antimicrobial Activity (Log Reduction) E. coli: 0.9
[1]; 250 ppm in flexible PVC
  Antimicrobial Activity (Log Reduction) E. coli: 2.5
[2]; 100 ppm in flexible PVC
  Antimicrobial Activity (Log Reduction) S. aureus: 0.2
[2]; 250 ppm in flexible PVC
  Antimicrobial Activity (Log Reduction) S. aureus: 0.6

## CCNc1nc(NC(C)(C)C)nc(SC)n1 [Non-encapsulated Terbutryn, Terbutryn]
[3]; leaching time 5 minutes
  Terbutryn in water (in ppm): 150 ppm
[3]; leaching time 1 hr
  Terbutryn in water (in ppm): 90 ppm
[3]; leaching time 24 hrs
  Terbutryn in water (in ppm): 79.8 ppm

## CCCCNC(=O)OCC#CI [Non-encapsulated IPBC, 3-iodo-2-propargyl butyl carbamate]
[4]; leaching time 1 hr
  IPBC (in ppm) leached from Paint film: 1050 ppm
[4]; leaching time 3 hrs
  IPBC (in ppm) leached from Paint film: 102 ppm
[4]; leaching time 15 hrs
  IPBC (in ppm) leached from Paint film: 65 ppm
[4]; leaching time 48 hrs
  IPBC (in ppm) leached from Paint film: 78 ppm
[3]; leaching time 5 minutes
  IPBC in water (in ppm): 356 ± 4 ppm
[3]; leaching time 1 hr
  IPBC in water (in ppm): 273 ± 10 ppm
[3]; leaching time 24 hrs
  IPBC in water (in ppm): 236 ± 22 ppm

## CN(C)C(=O)Nc1ccc(Cl)c(Cl)c1 [Non-encapsulated Diuron, Diuron]
[3]; leaching time 30 minutes
  Diuron in water (in ppm): 53.6 ppm
[3]; leaching time 2 hrs
  Diuron in water (in ppm): 51.4 ppm
[3]; leaching time 4 hrs
  Diuron in water (in ppm): 54.6 ppm
[3]; leaching time 20 hrs
  Diuron in water (in ppm): 52.0 ppm
